# Experimental data as given in ChEMBL document CHEMBL4680185, “Discovery of novel cyclin-dependent kinase (CDK) and histone deacetylase (HDAC) dual inhibitors with potent in vitro and in vivo anticancer activity” (Eur J Med Chem, 2020).
# Calls of active or inactive are those of the source. No cut-off for these calls is given here.
# How the values were obtained:
# [1] = test system: NCI-H460; test: Induction of apoptosis in human H460 cells assessed as number of apoptotic cells at 0.5 to 2 uM incubated for 48 hrs by annexin V-FITC/PI based flow cytometric analysis; type: functional, cell-based; conditions: dose 0.5-2 µM
# [2] = test system: HCT-116; test: cells; type: functional, cell-based; conditions: Homo sapiens, HCT-116, 72 h
# Description: Antiproliferative activity against human HCT116 cells assessed as inhibition of cell growth incubated for 72 hrs by CCK-8 assay
# [3] = molecular target: Histone deacetylase (Homo sapiens) (UniProt Q13547+O15379+Q9UBN7+Q92769+Q9UQL6+Q8WUI4+Q9BY41+Q96DB2+P56524+Q9UKV0+Q969S8); test: Inhibition of HDAC in human A375 cells assessed as increase in acetylation of H3K9 at 1 uM measured after 12 hr by DAPI staining based immunofluorescence analysis; type: cell-based; conditions: A-375
# [4] = test system: NCI-H460; test: cells; type: functional; conditions: Homo sapiens, time 72 hrs, read-out: GI
# [5] = molecular target: Cyclin-dependent kinase 7/ cyclin H (Homo sapiens, UniProt P50613); test: Inhibition of recombinant human full length CDK7/cyclin H1 expressed in Sf9 cells incubated for 10 mins by ADP-Glo reagent assay
# Cyclin-dependent kinase 7/ cyclin H, sequence (P51946 whole entry): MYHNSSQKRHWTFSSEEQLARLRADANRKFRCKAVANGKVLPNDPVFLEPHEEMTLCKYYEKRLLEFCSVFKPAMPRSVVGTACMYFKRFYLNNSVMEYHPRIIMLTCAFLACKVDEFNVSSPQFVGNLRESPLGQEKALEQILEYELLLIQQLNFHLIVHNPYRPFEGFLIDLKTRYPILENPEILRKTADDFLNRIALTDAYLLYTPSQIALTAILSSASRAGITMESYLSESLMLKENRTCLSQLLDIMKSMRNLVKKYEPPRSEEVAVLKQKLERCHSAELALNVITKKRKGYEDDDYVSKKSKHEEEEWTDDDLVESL
# Cyclin-dependent kinase 7/ cyclin H, sequence (P50613 whole entry): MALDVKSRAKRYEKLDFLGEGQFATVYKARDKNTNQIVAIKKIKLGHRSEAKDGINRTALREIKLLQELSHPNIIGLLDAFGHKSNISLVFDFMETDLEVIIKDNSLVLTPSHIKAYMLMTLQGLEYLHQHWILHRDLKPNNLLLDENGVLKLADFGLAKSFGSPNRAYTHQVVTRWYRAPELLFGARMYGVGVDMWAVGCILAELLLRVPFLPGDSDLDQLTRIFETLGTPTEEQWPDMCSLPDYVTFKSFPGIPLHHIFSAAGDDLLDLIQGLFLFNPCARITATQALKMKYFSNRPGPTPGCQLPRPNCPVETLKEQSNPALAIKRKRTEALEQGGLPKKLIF
# [6] = molecular target: CDK6/cyclin D3 (Homo sapiens, UniProt Q00534); test: Inhibition of recombinant human full length CDK6/cyclin D3 incubated for 10 mins by ADP-Glo reagent assay; type: protein-complex assay
# CDK6/cyclin D3, sequence (P30281 whole entry): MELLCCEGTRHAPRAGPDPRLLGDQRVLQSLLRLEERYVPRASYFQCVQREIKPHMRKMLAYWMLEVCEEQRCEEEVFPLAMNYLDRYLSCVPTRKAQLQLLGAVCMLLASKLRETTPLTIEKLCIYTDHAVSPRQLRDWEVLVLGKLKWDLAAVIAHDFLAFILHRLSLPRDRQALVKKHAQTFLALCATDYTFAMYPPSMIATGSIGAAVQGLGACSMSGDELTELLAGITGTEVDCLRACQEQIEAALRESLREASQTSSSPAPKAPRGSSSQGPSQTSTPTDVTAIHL
# CDK6/cyclin D3, sequence (Q00534 whole entry): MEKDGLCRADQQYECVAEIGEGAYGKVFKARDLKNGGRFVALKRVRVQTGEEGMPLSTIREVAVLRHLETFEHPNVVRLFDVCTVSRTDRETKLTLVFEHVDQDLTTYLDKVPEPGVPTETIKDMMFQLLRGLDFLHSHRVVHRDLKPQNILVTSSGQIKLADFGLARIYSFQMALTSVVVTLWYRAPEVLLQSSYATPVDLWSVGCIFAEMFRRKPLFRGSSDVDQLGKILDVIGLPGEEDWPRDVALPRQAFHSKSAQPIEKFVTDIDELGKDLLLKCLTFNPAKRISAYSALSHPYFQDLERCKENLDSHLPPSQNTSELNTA
# [7] = test system: A-375; test: Cell cycle arrest in human A375 cells assessed as increase in number of cells at G2/M phase at 2 uM incubated for 24 hrs by propidium iodide staining based flow cytometry (reference value: 1.13%); type: functional
# [8] = test system: A-375; test: Cell cycle arrest in human A375 cells assessed as increase in number of cells at G2/M phase at 0.5 to 2 uM incubated for 24 hrs by propidium iodide staining based flow cytometry; type: functional; conditions: dose 0.5-2 µM
# [9] = test system: SMMC-7721; test: cells; type: functional, cell-based; conditions: Homo sapiens, SMMC-7721, 72 h
# Description: Antiproliferative activity against human SMMC7721 cells assessed as inhibition of cell growth incubated for 72 hrs by CCK-8 assay
# [10] = molecular target: Cyclin-dependent kinase 4/cyclin D1 (Homo sapiens, UniProt P11802); test: Inhibition of recombinant human full length CDK4/cyclin D1 expressed in Sf9 cells incubated for 10 mins by ADP-Glo reagent assay
# Cyclin-dependent kinase 4/cyclin D1, sequence (P11802 whole entry): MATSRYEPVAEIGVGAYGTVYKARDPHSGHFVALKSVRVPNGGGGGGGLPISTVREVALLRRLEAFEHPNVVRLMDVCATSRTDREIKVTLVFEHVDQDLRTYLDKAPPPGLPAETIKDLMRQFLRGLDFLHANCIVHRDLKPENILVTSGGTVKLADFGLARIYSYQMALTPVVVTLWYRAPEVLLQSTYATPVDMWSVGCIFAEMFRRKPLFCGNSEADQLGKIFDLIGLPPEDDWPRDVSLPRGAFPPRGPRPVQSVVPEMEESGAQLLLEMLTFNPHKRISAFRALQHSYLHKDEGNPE
# Cyclin-dependent kinase 4/cyclin D1, sequence (P24385 whole entry, further chain): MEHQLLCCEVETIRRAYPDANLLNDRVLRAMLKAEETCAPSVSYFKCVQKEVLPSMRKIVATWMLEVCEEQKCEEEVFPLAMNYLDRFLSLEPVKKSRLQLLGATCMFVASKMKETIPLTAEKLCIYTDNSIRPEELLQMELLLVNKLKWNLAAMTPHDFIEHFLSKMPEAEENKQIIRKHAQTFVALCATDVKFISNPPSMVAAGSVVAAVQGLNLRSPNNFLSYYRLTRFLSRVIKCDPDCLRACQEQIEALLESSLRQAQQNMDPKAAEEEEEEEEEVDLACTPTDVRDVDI
# [11] = test system: A-375; test: cells; type: functional, cell-based; conditions: Homo sapiens, A-375, 72 h
# Description: Antiproliferative activity against human A375 cells assessed as inhibition of cell growth incubated for 72 hrs by CCK-8 assay
# [12] = Half life in ICR mouse at 20 mg/kg, ip by LC-MS/MS analysis; type: ADME, organism-based; conditions: in vivo
# [13] = test system: A-375; test: Antimigratory activity against human A375 cells assessed as inhibition of cell migration at 0.25 uM measured after 48 hrs by cell scratch assay; type: functional, cell-based
# [14] = test system: A-375; test: Induction of apoptosis in human A375 cells assessed as number of apoptotic cells at 2 uM incubated for 48 hrs by annexin V-FITC/PI based flow cytometric analysis relative to control; type: functional
# [15] = molecular target: T1, Histone deacetylase 8 (Homo sapiens, UniProt Q9BY41); test: Inhibition of human recombinant HDAC8 preincubated for 10 mins followed by substrate addition measured after 30 mins by fluorescent plate reader analysis
# T1 sequence (Q9BY41 whole entry): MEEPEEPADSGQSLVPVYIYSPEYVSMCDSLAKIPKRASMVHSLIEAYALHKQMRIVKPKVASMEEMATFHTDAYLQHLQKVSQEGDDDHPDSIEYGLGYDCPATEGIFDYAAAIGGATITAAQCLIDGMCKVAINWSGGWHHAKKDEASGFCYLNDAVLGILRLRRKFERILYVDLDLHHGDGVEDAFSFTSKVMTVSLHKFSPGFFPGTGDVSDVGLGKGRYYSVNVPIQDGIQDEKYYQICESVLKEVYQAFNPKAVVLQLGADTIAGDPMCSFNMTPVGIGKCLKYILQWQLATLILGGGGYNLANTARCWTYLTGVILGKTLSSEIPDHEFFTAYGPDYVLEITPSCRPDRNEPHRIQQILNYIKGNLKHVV
# [16] = MRT (0 to infinity) in ICR mouse at 20 mg/kg, ip by LC-MS/MS analysis; type: ADME, organism-based; conditions: in vivo
# [17] = test system: HeLa; test: cells; type: functional, cell-based; conditions: Homo sapiens, 72 h
# Description: Antiproliferative activity against human Hela cells assessed as inhibition of cell growth incubated for 72 hrs by CCK-8 assay
# [18] = molecular target: T2, Protein deacetylase HDAC6 (Homo sapiens, UniProt Q9UBN7); test: Inhibition of human recombinant HDAC6 preincubated for 10 mins followed by addition of substrate fluor De Lys SIRT1 deacetylase measured after 30 mins by fluorescent plate reader analysis
# T2 sequence (Q9UBN7 whole entry): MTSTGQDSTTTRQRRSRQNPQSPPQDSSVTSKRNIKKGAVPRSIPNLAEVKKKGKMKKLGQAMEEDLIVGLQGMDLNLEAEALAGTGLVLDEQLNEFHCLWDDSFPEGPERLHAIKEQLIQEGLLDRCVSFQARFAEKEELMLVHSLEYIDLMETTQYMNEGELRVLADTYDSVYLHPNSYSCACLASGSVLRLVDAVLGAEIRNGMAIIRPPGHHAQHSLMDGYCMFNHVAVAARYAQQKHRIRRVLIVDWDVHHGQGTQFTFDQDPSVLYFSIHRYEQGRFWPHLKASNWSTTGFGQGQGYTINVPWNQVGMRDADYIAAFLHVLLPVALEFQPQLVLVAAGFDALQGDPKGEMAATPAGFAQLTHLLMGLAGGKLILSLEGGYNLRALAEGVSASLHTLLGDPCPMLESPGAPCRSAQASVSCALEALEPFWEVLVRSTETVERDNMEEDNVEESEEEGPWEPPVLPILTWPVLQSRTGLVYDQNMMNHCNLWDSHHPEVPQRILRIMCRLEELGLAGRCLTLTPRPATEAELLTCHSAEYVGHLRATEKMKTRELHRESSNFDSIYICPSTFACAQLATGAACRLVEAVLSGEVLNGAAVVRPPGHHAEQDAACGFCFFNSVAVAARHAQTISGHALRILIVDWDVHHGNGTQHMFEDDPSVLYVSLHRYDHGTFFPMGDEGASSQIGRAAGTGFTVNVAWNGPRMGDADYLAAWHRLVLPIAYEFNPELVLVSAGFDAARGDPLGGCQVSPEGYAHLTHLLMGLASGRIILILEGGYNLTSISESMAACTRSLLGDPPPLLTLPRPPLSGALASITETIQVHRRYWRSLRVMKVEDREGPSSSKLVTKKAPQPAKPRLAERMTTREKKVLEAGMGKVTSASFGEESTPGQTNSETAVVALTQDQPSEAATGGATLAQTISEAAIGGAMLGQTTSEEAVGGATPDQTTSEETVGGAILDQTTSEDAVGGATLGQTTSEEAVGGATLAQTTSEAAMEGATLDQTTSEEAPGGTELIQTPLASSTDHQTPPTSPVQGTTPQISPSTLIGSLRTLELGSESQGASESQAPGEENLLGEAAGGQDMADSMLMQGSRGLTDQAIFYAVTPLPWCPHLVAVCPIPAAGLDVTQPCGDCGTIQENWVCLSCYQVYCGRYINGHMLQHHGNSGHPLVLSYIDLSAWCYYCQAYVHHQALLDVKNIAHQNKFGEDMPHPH
# [19] = test system: HCT-116; test: cells; type: functional; conditions: Homo sapiens, time 72 hrs, read-out: GI
# [20] = test system: NCI-H460; test: cells; type: functional; conditions: Homo sapiens, time 72 hrs, read-out: GI; remark: listed apart in the source
Compound,Activity [1],IC50 [2] [nM],inhibition [3],inhibition of growth at 8 µM [4] [%],IC50 [5] [nM],IC50 [6] [nM],Activity [7] [%],Activity [8],IC50 [9] [nM],IC50 [10] [nM],IC50 [11] [nM],t1/2 [12] [h],inhibition [13],Activity [14] [%],IC50 [15] [nM],MRT inf [16] [h],IC50 [17] [nM],IC50 [18] [nM],inhibition of growth at 2 µM [19] [%],inhibition of growth at 2 µM [20] [%]
Nc1ccccc1NC(=O)c1ccc(CNC(=O)c2n[nH]cc2NC(=O)c2c(Cl)cccc2Cl)cc1,Active,710,Active,78.3,> 1000,> 1000,57.74,Active,7760,> 1000,1200,2.61,Active,97.22,> 1000,3.31,1830,> 1000,73.8,32.8
Nc1ccccc1NC(=O)Cc1ccc(NC(=O)c2n[nH]cc2NC(=O)c2c(Cl)cccc2Cl)cc1,Active,1450,Active,67.4,> 1000,> 1000,66.48,Active,5220,> 1000,1600,1.63,Active,73.08,> 1000,2.36,3150,> 1000,72.9,57.3
